Each block holds one compound with its values, some of them ahead of it.
Key:
[1] = molecular target: T1, Lysine-specific demethylase 4C (Homo sapiens, UniProt Q9H3R0); assay: Inhibition of KDM4C (1 to 350 residues) (unknown origin) expressed in Escherichia coli using […] as substrate
T1 sequence (Q9H3R0 whole entry): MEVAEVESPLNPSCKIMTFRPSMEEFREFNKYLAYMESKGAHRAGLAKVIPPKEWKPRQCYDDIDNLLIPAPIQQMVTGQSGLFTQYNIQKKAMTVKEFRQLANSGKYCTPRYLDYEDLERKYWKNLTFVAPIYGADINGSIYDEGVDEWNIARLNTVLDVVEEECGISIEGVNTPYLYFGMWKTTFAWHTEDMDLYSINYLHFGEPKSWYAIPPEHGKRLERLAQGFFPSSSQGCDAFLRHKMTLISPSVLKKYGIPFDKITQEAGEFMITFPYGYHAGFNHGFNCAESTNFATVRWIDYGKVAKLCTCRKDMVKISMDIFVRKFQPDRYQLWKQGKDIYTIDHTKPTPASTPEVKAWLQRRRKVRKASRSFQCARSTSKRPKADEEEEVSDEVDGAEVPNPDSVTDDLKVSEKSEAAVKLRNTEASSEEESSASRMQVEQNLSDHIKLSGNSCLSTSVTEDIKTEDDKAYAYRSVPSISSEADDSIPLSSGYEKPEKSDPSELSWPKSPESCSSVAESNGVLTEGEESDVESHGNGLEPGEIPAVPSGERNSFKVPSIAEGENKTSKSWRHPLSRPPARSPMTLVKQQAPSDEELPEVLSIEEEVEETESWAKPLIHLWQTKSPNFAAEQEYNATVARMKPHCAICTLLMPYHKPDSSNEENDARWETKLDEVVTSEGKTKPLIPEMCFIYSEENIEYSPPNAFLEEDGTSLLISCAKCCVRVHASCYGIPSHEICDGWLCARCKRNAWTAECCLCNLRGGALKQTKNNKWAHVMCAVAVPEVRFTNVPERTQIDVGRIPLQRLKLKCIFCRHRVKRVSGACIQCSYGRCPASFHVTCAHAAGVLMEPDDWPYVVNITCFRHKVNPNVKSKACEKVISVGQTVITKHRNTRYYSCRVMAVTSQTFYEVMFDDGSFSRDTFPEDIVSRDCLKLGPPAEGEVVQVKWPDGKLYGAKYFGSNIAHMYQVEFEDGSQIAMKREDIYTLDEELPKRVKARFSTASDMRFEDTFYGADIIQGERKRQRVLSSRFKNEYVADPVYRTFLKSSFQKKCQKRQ

[2] = Antiproliferative activity against human PC3 cells assessed as reduction in cell viability by MTT assay; type: functional, cell-based; conditions: PC-3
[3] = test system: LNCaP; assay: Antiproliferative activity against human LNCAP cells assessed as reduction in cell viability by MTT assay; type: functional, cell-based
[4] = Antiproliferative activity against human VCaP cells assessed as reduction in cell viability by MTT assay; type: functional, cell-based
[5] = molecular target: T2, Lysine-specific demethylase 4A (Homo sapiens, UniProt O75164)
T2 sequence (O75164 whole entry): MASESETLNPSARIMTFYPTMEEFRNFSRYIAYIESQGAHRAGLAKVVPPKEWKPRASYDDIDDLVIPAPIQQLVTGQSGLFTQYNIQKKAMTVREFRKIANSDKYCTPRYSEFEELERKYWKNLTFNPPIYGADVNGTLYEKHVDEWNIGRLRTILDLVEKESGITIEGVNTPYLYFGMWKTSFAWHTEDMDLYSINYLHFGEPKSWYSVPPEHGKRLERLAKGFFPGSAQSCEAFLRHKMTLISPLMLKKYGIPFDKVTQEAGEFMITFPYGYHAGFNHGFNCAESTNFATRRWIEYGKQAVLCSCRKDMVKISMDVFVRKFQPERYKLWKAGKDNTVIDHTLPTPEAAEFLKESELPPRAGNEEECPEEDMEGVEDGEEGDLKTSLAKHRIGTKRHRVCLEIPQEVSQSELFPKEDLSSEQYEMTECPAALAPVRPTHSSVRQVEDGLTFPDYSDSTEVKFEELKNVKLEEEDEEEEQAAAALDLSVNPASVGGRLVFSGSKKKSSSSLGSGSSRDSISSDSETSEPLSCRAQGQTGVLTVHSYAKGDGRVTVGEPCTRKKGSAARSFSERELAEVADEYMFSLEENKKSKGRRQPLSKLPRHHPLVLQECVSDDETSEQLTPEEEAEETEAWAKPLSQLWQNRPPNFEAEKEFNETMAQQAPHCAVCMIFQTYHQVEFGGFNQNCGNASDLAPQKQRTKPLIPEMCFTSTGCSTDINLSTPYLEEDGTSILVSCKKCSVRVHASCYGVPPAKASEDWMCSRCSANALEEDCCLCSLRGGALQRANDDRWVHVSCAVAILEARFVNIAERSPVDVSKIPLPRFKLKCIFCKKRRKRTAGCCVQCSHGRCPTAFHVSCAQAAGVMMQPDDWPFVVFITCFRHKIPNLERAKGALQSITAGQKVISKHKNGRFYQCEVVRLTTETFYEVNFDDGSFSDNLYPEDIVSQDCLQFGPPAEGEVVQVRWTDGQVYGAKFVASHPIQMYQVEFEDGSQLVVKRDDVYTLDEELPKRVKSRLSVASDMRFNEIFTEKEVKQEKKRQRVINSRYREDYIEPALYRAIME

[6] = molecular target: Lysine-specific demethylase 5A (Homo sapiens, UniProt P29375)
Chain of Lysine-specific demethylase 5A (P29375 whole entry): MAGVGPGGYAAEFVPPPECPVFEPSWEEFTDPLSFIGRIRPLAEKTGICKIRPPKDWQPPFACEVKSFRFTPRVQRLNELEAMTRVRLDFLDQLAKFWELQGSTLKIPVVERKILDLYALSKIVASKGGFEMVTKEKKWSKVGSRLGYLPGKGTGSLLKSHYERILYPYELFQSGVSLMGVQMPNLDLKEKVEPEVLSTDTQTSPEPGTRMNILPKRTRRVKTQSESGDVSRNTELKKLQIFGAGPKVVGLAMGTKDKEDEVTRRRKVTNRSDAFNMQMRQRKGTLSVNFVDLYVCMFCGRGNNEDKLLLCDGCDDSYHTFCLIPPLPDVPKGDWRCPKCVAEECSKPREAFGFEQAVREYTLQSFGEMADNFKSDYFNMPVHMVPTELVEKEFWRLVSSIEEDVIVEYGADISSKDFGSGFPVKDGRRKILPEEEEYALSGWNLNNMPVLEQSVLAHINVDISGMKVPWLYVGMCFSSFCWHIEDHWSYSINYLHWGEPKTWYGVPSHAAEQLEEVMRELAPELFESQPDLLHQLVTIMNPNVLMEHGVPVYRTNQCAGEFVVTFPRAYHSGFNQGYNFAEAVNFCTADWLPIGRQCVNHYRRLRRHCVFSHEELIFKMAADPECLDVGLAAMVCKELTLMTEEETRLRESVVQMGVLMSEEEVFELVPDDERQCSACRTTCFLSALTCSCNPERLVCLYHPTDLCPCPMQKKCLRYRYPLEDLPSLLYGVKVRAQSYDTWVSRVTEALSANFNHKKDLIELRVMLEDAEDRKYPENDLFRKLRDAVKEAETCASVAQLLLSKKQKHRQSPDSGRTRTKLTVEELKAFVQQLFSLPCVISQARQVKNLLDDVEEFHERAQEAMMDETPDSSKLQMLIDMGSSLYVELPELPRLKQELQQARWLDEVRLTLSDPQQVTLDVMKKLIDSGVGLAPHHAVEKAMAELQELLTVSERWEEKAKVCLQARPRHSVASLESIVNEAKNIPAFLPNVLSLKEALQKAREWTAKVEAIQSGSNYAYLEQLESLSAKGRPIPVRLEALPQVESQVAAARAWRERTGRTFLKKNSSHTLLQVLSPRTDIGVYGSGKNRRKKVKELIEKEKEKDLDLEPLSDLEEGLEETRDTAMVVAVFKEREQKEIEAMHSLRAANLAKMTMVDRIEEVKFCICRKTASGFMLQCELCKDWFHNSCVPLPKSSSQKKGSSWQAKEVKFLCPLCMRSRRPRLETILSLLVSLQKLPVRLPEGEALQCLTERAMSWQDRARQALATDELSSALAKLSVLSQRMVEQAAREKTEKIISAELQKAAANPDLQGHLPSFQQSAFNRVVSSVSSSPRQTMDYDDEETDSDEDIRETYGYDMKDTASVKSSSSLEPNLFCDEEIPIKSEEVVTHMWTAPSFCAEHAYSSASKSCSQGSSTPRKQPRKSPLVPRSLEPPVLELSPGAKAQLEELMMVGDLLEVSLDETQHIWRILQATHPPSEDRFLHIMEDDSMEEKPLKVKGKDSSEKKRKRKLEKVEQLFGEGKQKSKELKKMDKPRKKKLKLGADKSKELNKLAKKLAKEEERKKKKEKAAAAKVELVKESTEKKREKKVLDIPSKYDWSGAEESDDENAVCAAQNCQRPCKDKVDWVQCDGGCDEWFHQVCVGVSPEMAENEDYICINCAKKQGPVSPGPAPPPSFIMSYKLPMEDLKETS

[7] = molecular target: T3, Lysine-specific demethylase 4B (Homo sapiens, UniProt O94953); assay: biochemical
T3 sequence (O94953 whole entry): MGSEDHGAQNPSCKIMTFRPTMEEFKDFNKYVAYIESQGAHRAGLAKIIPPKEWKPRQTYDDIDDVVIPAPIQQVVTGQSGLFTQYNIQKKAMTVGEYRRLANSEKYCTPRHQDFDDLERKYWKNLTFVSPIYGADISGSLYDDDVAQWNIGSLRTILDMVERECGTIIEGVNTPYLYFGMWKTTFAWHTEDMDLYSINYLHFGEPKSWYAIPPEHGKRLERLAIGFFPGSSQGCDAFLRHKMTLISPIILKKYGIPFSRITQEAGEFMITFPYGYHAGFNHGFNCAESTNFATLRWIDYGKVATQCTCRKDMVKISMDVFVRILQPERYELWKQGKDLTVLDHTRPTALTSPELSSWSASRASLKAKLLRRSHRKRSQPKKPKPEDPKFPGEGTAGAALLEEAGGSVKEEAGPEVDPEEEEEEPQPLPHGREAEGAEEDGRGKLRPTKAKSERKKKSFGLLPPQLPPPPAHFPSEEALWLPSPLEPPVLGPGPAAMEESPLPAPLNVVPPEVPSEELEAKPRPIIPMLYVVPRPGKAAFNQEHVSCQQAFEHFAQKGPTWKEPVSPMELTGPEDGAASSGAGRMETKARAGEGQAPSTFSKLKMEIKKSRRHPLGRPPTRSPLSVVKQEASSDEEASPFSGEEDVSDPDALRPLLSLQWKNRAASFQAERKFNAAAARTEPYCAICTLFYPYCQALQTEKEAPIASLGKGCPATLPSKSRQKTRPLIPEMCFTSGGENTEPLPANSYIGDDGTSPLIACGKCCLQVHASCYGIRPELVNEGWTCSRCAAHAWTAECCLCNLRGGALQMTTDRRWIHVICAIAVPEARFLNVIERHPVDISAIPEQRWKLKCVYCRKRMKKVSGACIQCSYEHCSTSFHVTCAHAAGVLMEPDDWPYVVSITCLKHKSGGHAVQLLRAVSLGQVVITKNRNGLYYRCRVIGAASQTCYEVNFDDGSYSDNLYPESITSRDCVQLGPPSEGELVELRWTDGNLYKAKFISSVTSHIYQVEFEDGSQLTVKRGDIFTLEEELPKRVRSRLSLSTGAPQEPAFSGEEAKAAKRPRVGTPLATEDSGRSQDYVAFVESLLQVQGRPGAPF

[8] = molecular target: T4, Lysine-specific histone demethylase 1A (Homo sapiens, UniProt O60341); assay: Inhibition of recombinant human N-terminal GST-tagged KDM1A expressed in Escherichia coli using H3K4me2 as substrate preincubated for 15 mins followed by substrate addition measured after 1 hr by peroxidase coupled enzyme assay
[9] = molecular target: T5, Amine oxidase [flavin-containing] A (Homo sapiens, UniProt P21397); assay: Inhibition of human recombinant MAO-A using 3-(2-Aminophenyl)-3-oxopropanamine as substrate preincubated for 15 mins followed by substrate addition measured after 1 hr by fluorescence microplate reader analysis
T5 sequence (P21397 whole entry): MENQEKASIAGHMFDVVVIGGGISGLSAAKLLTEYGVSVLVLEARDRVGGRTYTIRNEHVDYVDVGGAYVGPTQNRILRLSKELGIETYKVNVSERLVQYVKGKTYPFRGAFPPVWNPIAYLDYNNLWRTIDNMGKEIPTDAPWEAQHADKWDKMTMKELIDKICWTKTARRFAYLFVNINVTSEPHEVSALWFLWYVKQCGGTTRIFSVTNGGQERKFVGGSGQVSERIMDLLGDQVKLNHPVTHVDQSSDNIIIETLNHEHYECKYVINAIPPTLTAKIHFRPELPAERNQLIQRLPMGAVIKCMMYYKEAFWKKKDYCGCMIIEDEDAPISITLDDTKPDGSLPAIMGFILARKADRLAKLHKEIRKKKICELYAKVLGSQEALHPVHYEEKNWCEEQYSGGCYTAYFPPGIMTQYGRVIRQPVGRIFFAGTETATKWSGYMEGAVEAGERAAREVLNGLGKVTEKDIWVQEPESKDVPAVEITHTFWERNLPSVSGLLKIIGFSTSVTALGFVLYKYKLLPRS

[10] = molecular target: T6, Amine oxidase [flavin-containing] B (Homo sapiens, UniProt P27338); assay: Inhibition of human recombinant MAO-B using 3-(2-Aminophenyl)-3-oxopropanamine as substrate preincubated for 15 mins followed by substrate addition measured after 1 hr by fluorescence microplate reader analysis
T6 sequence (P27338 whole entry): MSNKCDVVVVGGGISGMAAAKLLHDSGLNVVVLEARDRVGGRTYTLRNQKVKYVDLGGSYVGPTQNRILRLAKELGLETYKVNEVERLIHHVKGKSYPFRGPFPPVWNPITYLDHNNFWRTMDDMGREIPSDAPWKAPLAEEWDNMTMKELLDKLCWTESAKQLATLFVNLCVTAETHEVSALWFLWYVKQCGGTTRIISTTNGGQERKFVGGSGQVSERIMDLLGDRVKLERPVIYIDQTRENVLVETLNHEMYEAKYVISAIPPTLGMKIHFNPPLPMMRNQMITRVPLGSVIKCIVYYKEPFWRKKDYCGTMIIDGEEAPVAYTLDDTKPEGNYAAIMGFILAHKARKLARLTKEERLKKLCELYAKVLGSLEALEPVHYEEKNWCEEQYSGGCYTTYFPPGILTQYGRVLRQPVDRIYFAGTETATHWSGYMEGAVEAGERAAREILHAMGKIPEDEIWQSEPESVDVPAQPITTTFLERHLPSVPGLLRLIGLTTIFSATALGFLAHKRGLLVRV

[11] = test system: HeLa; assay: Antiproliferative activity against human HeLa cells assessed as reduction in cell viability after 72 hrs by MTT assay; type: functional, cell-based
[12] = test system: MDA-MB-231; assay: Antiproliferative activity against human MDA-MB-231 cells assessed as reduction in cell viability after 72 hrs by MTT assay; type: functional, cell-based; conditions: MDA-MB-231, 72 h
[13] = molecular target: T4, Lysine-specific histone demethylase 1A
[14] = molecular target: T4, Lysine-specific histone demethylase 1A; assay: Inhibition of full length human KDM1A expressed in Escherichia coli using biotin-H3K4me1 as substrate incubated for 1 hr by TR-FRET assay
[15] = molecular target: T4, Lysine-specific histone demethylase 1A; assay: Inhibition of KDM1A in human THP1 cells assessed as inhibition of CD11b expressing cells incubated for 4 days by DAPI staining based flow cytometry; type: cell-based, THP-1
[16] = molecular target: T5, Amine oxidase [flavin-containing] A; assay: Inhibition of MAO-A (unknown origin) using MAO substrate incubated for 1 hr by MAO-Glo assay
[17] = molecular target: T6, Amine oxidase [flavin-containing] B; assay: Inhibition of MAO-B (unknown origin) using MAO substrate incubated for 1 hr by MAO-Glo assay
[18] = molecular target: T4, Lysine-specific histone demethylase 1A; assay: Inhibition of human recombinant KDM1A using H3 (1 to 21 residues)-K4me2 peptide substrate by fluorescence coupling enzyme assay
[19] = molecular target: T4, Lysine-specific histone demethylase 1A; assay: Inhibition of human recombinant KDM1A expressed in Escherichia coli using H3K4me peptide substrate preincubated for 15 mins followed substrate addition measured after 12 mins by peroxidase coupled enzyme assay
[20] = molecular target: T5, Amine oxidase [flavin-containing] A; assay: Inhibition of human recombinant MAO-A expressed in Pichia pastoris preincubated for 15 mins followed by substrate addition measured after 30 mins by MAO-Glo assay
[21] = molecular target: T6, Amine oxidase [flavin-containing] B; assay: Inhibition of human recombinant MAO-B expressed in Pichia pastoris preincubated for 15 mins followed by substrate addition measured after 30 mins by MAO-Glo assay
[22] = molecular target: T5, Amine oxidase [flavin-containing] A; assay: Inhibition of MAO-A (unknown origin) preincubated for 10 mins followed by substrate addition measured after 60 mins by MAO-Glo assay
[23] = molecular target: T6, Amine oxidase [flavin-containing] B
[24] = molecular target: T4, Lysine-specific histone demethylase 1A; assay: biochemical

- IC50 [1]: < 1000 nM
- IC50 [3]: < 1000 nM
- IC50 [5]: < 1000 nM
- IC50 [6]: > 10000 nM
- IC50 [7]: 10 nM
SMILES: O=C(NCCCc1ccccc1)c1cccc(-c2cc(O)c3ncccc3c2)c1
- IC50 [2]: 40 nM
- IC50 [4]: < 1000 nM

- IC50 [8]: 70 nM
- IC50 [9]: > 1000 nM
- IC50 [10]: > 10000 nM
SMILES: CC(C)S(=O)(=O)Nc1cccc(-c2ccc([C@H]3C[C@@H]3N)cc2)c1

- IC50 [11]: 1.2 nM
- IC50 [12]: 1.2 nM
- IC50 [13]: 10100 nM
SMILES: CSCCc1nc(-c2cc(N)ccc2Cl)oc1C

- IC50 [14]: < 10 nM
- IC50 [15]: < 10 nM
SMILES: Cc1ccc(-c2cnc(NC[C@H]3CCNC3)nc2-c2ccc(C#N)cc2)cc1

- IC50 [16]: > 100000 nM
- IC50 [17]: > 100000 nM
SMILES: O=C(N[C@@H](CCCCN[C@@H]1C[C@H]1c1ccccc1)C(=O)NCc1cccc(Cl)c1)c1ccc(-c2ccccc2)cc1

- IC50 [18]: < 1000 nM
SMILES: O=C(N[C@@H](CCCCN[C@@H]1C[C@H]1c1ccc(F)cc1)C(=O)NCc1ccc(F)cc1)c1ccccc1

- IC50 [19]: < 100 nM
- IC50 [20]: > 10000 nM
- IC50 [21]: > 10000 nM
SMILES: CN1CCN(c2ccc(C(=O)Nc3ccc([C@@H]4C[C@]4(N)CCc4ccccc4)cc3)cc2)CC1 (racemic)

- IC50 [22]: > 10000 nM
- IC50 [23]: > 10000 nM
- IC50 [24]: < 1000 nM
SMILES: Cc1ncc(NC(=O)c2cccc([C@@H]3C[C@H]3NC3CCOCC3)c2)s1 (racemic)
